Marks after values point to notes of the source that are not given here.
Tests used:
SOD [1] = test: SOD activity of brain tissues from permanent 2-VO rats; assay type: in vivo, rat; conditions: for SOD activity in cortex: 21 days
Procedure: (§1) In 10 days after onset of 2-VO, drugs and vehicle were administered orally to rats for 21 days (one time/each day). The spatial learning and memory capability of rats were detected by Morris water maze in the 25-30 days after operation. The Morris water test was commenced at 40 min after drugs treated. The biochemical and pathology assays were conducted later (in 24 h) after behavioral tests.
(§2) The biochemical assays were conducted later (in 24 h) after behavioral testing. Eight rats in each group were anesthetized with ether and sacrificed. The brains were quickly removed and cleaned with ice-cold saline. Then the parietal cortex and hippocampus were isolated. For biochemical analysis, the tissues were weighed and homogenized in ice-cold saline with the proportion of 1:9 (w/v). Homogenization (IKA, Germany) was carried out for 2 min in an ice bath. After the homogenates were centrifuged at 2,000×g for 10 min at 4° C. (Sigma, Germany), the supernatant was used for analytical procedures. The levels of choline acetyltransferase (ChAT) SOD, and MDA activities were determined with commercial colorimetric assay kits (Nanjing Jiancheng Bioengineering Institute, China). The content of protein in the supernatant was determined by Bradford method using BSA as standard.

SOD [2] = test: SOD activity of brain tissues from SAMP8 mice; assay type: in vivo; conditions: 35 days; for SOD activity in the hippocampus: untreated SAMP8 279.4±65.7, P<0.05
Procedure: as §2
SAMP8 were divided into three experimental groups randomly: one vehicle control group, and two dl-PHPB-treated groups (50, and 160 mg/kg). Drugs and vehicle were administered orally to SAMP8 mice for 35 days (one time/each day). The spatial learning and memory abilities of SAMP8 mice were detected by Morris water maze and DTT-2 jumping apparatus in 31-35 days. The testing was commenced at 40 min after drugs treated. The biochemical and pathology assays conducted later (in 24 h) after behavioral testing.
The methods as described previously.

[3] = system: permanent 2-VO rats (chronic cerebral hypoperfusion); test: Morris water maze in permanent 2-VO (BCCAO) rats; assay type: in vivo, rat; conditions: for probe trial: time in the platform quadrant and time to cross the platform location / escape latency in the water maze task: 2-VO rats; for probe trial: time in the platform quadrant and time to cross the platform location: compared to 2-VO animals; for escape latency in the water maze task: vs vehicle
From the text: Chronic cerebral hypoperfusion was proceeded by a permanent, bilateral occlusion of the common carotid arteries (2-VO) of adult rats. The rats were anesthetized with 10% trichloro-acetaldehyde, and temperature probe was inserted into the rectum, and a separate heating lamp was used to maintain rectal temperature at normothermic level. After a midline neck skin incision, the common carotid artery were exposed and ligated by a 5-0 nylon suture.
as §1, with “Rats were randomly divided into six experimental groups (20 rats/each group): one sham-operated group, one vehicle control group, one piracetam-treated group (600 mg/kg), and three dl-PHPB-treated groups (13, 39, and 129 mg/kg). In” for “In”
Subjects were tested in a Morris water maze. This test is based on a standardized assessment of spatial learning ability. The water maze apparatus consisted of a circular, stainless pool (120 cm in diameter, 60 cm in height). It was placed in a dimly lit, sound-proof test room. Multiple distant cues around the room (window, cabinets, furniture) were kept in the same location throughout the experiments. The water was filled to a depth of 40 cm at 25±1° C. and was made opaque by adding milk powder to prevent visualization of the platform. A transparent platform (10 cm diameter) was put 1.5 cm below the surface of the water. The tank was divided into four quadrants with the platform in a fixed position in one quadrant. The subjects were placed into the maze facing the pool wall and were allowed two trials per day, 60 s per trial, to find the hidden platform. If the subject found the platform within the 60 s, it was given a 10-s rest period on the platform between trials. If the pedestal was not located within the time allotted, the subject was placed on to the platform and allowed 10 s until the next trial. The escape latency (time to reach the platform) was used to assess acquisition of the water maze task. Sessions were repeated for five consecutive days. On the sixth day, the platform was removed and the rat was allowed to search for the platform for 60 s (probe test). The time in the platform quadrant and latency time to cross platform location were recorded to measure the spatial learning ability without the influence of chance encounters with the platform. The Morris water maze sessions were recorded with a video camera for offline analysis.

[4] = dl-PHPB 13 mg/kg, 1st of 5 M/R/T/L column groups (day not printed)
[5] = dl-PHPB 13 mg/kg, 2nd of 5 M/R/T/L column groups (day not printed)
[6] = dl-PHPB 13 mg/kg, 3rd of 5 M/R/T/L column groups (day not printed)
[7] = dl-PHPB 13 mg/kg, 4th of 5 M/R/T/L column groups (day not printed)
[8] = dl-PHPB 13 mg/kg, 5th of 5 M/R/T/L column groups (day not printed)
[9] = dl-PHPB 39 mg/kg, 1st of 5 M/R/T/L column groups (day not printed)
[10] = dl-PHPB 39 mg/kg, 2nd of 5 M/R/T/L column groups (day not printed)
[11] = dl-PHPB 39 mg/kg, 3rd of 5 M/R/T/L column groups (day not printed)
[12] = dl-PHPB 39 mg/kg, 4th of 5 M/R/T/L column groups (day not printed)
[13] = dl-PHPB 39 mg/kg, 5th of 5 M/R/T/L column groups (day not printed)
[14] = dl-PHPB 129 mg/kg, 1st of 5 M/R/T/L column groups (day not printed)
[15] = dl-PHPB 129 mg/kg, 2nd of 5 M/R/T/L column groups (day not printed)
[16] = dl-PHPB 129 mg/kg, 3rd of 5 M/R/T/L column groups (day not printed)
[17] = dl-PHPB 129 mg/kg, 4th of 5 M/R/T/L column groups (day not printed)
[18] = dl-PHPB 129 mg/kg, 5th of 5 M/R/T/L column groups (day not printed)

CCCCC(O)c1ccccc1C(=O)[O-].[K+] (racemic) [dl-PHPB, Potassium 2-(1-Hydroxypentyl)-benzoate]
SOD activity in cortex (SOD [1]; dl-PHPB 13 mg/kg): significantly alleviated the increase of SOD activity
SOD activity in cortex (SOD [1]; dl-PHPB 39 mg/kg): significantly alleviated the increase of SOD activity
SOD activity in hippocampus (SOD [1]; hippocampus, doses not given): no significant effects
SOD activity in the hippocampus (SOD [2]; 50 mg/kg oral): 156.2±7.8 U/mg protein
SOD activity in the hippocampus (SOD [2]; 160 mg/kg oral): 158.7±11.4 U/mg protein
SOD activity in the cortex (SOD [2]; cortex): did not significantly improve SOD activity
probe trial: time in the platform quadrant and time to cross the platform location ([3]; 13 mg/kg orally 21 days): markedly showed ameliorative effect
escape latency in the water maze task ([3]; 13 mg/kg orally daily for 21 days): did not differ from the vehicle control animals
probe trial: time in the platform quadrant and time to cross the platform location ([3]; 39 mg/kg orally 21 days): markedly showed ameliorative effect
escape latency in the water maze task ([3]; 39 mg/kg orally daily for 21 days): significantly rescued learning impairment
escape latency in the water maze task ([3]; 129 mg/kg orally daily for 21 days): significantly rescued learning impairment
search strategy times, linear mode (L) [3, 4]: 1
search strategy times, marginal mode (M) [3, 4]: 11
search strategy times, random mode (R) [3, 4]: 13
search strategy times, tendency mode (T) [3, 4]: 11
search strategy times, linear mode (L) [3, 5]: 6
search strategy times, marginal mode (M) [3, 5]: 3
search strategy times, random mode (R) [3, 5]: 11
search strategy times, tendency mode (T) [3, 5]: 16
search strategy times, linear mode (L) [3, 6]: 5
search strategy times, marginal mode (M) [3, 6]: 0
search strategy times, random mode (R) [3, 6]: 10
search strategy times, tendency mode (T) [3, 6]: 21
search strategy times, linear mode (L) [3, 7]: 7
search strategy times, marginal mode (M) [3, 7]: 0
search strategy times, random mode (R) [3, 7]: 9
search strategy times, tendency mode (T) [3, 7]: 20
search strategy times, linear mode (L) [3, 8]: 4
search strategy times, marginal mode (M) [3, 8]: 0
search strategy times, random mode (R) [3, 8]: 5
search strategy times, tendency mode (T) [3, 8]: 26
search strategy times, linear mode (L) [3, 9]: 2
search strategy times, marginal mode (M) [3, 9]: 7
search strategy times, random mode (R) [3, 9]: 15
search strategy times, tendency mode (T) [3, 9]: 12
search strategy times, linear mode (L) [3, 10]: 4
search strategy times, marginal mode (M) [3, 10]: 3
search strategy times, random mode (R) [3, 10]: 9
search strategy times, tendency mode (T) [3, 10]: 18
search strategy times, linear mode (L) [3, 11]: 3
search strategy times, marginal mode (M) [3, 11]: 1
search strategy times, random mode (R) [3, 11]: 13
search strategy times, tendency mode (T) [3, 11]: 17
search strategy times, linear mode (L) [3, 12]: 9
search strategy times, marginal mode (M) [3, 12]: 0
search strategy times, random mode (R) [3, 12]: 7
search strategy times, tendency mode (T) [3, 12]: 18
search strategy times, linear mode (L) [3, 13]: 17*
search strategy times, marginal mode (M) [3, 13]: 0
search strategy times, random mode (R) [3, 13]: 4
search strategy times, tendency mode (T) [3, 13]: 13
search strategy times, linear mode (L) [3, 14]: 4
search strategy times, marginal mode (M) [3, 14]: 4
search strategy times, random mode (R) [3, 14]: 16
search strategy times, tendency mode (T) [3, 14]: 10
search strategy times, linear mode (L) [3, 15]: 1
search strategy times, marginal mode (M) [3, 15]: 2
search strategy times, random mode (R) [3, 15]: 12
search strategy times, tendency mode (T) [3, 15]: 19
search strategy times, linear mode (L) [3, 16]: 6
search strategy times, marginal mode (M) [3, 16]: 0
search strategy times, random mode (R) [3, 16]: 7
search strategy times, tendency mode (T) [3, 16]: 21
search strategy times, linear mode (L) [3, 17]: 7
search strategy times, marginal mode (M) [3, 17]: 1
search strategy times, random mode (R) [3, 17]: 5
search strategy times, tendency mode (T) [3, 17]: 20
search strategy times, linear mode (L) [3, 18]: 9
search strategy times, marginal mode (M) [3, 18]: 0
search strategy times, random mode (R) [3, 18]: 2
search strategy times, tendency mode (T) [3, 18]: 23

From US20110224300A1, “USE OF POTASSIUM 2-(a- HYDROXYPENTYL) BENZOATE IN THE MANUFACTURE OF MEDICAMENTS FOR PREVENTING AND/OR TREATING SENILE [sequence]” (Institute of Mataria Medica, Chinese Academy of Me, priority 2008, published 2011)
